PubChem BioAssay (NCI)
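Five concentrations, 48 hours, 96-well plates. Here, GI50 denotes the concentration required for 50% inhibition of growth. TGI: concentration producing complete growth inhibition.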

What was measured:
Experiment in all cases: inhibition of tumour cell growth, NCI panel, 48 h
SN12C renal = test system: SN12C renal
OVCAR-3 ovarian = test system: OVCAR-3 ovarian
K-562 leukemia = test system: K-562 leukemia
UACC-62 melanoma = test system: UACC-62 melanoma
HOP-92 NSCLC = test system: HOP-92 NSCLC
HT29 colon = test system: HT29 colon
HCT-116 colon = test system: HCT-116 colon
SNB-19 CNS = test system: SNB-19 CNS
MDA-MB-435 = test system: MDA-MB-435
SF-539 CNS = test system: SF-539 CNS
SW-620 colon = test system: SW-620 colon
DU-145 prostate = test system: DU-145 prostate
NCI/ADR-RES ovarian = test system: NCI/ADR-RES ovarian
SK-MEL-5 melanoma = test system: SK-MEL-5 melanoma
HCC-2998 colon = test system: HCC-2998 colon
MOLT-4 leukemia = test system: MOLT-4 leukemia
MALME-3M melanoma = test system: MALME-3M melanoma
CCRF-CEM leukemia = test system: CCRF-CEM leukemia
HS 578T breast = test system: HS 578T breast
HL-60(TB) leukemia = test system: HL-60(TB) leukemia
NCI-H522 lung = test system: NCI-H522 lung
T-47D breast = test system: T-47D breast
SF-268 CNS = test system: SF-268 CNS
SK-MEL-28 melanoma = test system: SK-MEL-28 melanoma
786-0 renal = test system: 786-0 renal
NCI-H460 lung = test system: NCI-H460 lung
IGROV1 ovarian = test system: IGROV1 ovarian
A549 NSCLC = test system: A549 NSCLC
OVCAR-4 ovarian = test system: OVCAR-4 ovarian
OVCAR-5 ovarian = test system: OVCAR-5 ovarian
LOX IMVI melanoma = test system: LOX IMVI melanoma
TK-10 renal = test system: TK-10 renal
PC-3 prostate = test system: PC-3 prostate
BT-549 breast = test system: BT-549 breast
HOP-62 NSCLC = test system: HOP-62 NSCLC
RXF 393 renal = test system: RXF 393 renal
OVCAR-8 ovarian = test system: OVCAR-8 ovarian
UACC-257 melanoma = test system: UACC-257 melanoma
MCF7 breast = test system: MCF7 breast
NCI-H23 lung = test system: NCI-H23 lung
KM12 colon = test system: KM12 colon
SK-OV-3 ovarian = test system: SK-OV-3 ovarian
SNB-75 CNS = test system: SNB-75 CNS
U251 CNS = test system: U251 CNS
SF-295 CNS = test system: SF-295 CNS
MDA-MB-468 breast = test system: MDA-MB-468 breast
HCT-15 colon = test system: HCT-15 colon
A498 renal = test system: A498 renal
SK-MEL-2 melanoma = test system: SK-MEL-2 melanoma
CAKI-1 renal = test system: CAKI-1 renal
EKVX NSCLC = test system: EKVX NSCLC
M14 melanoma = test system: M14 melanoma
ACHN renal = test system: ACHN renal
COLO 205 colon = test system: COLO 205 colon
RPMI-8226 leukemia = test system: RPMI-8226 leukemia
MDA-MB-231 breast = test system: MDA-MB-231 breast
UO-31 renal = test system: UO-31 renal
NCI-H226 lung = test system: NCI-H226 lung

`Brc1ccc(N/N=C/c2c[nH]c3ccc(Br)cc23)nc1` showed a GI50 (SN12C renal) of 1.05 µM, a TGI (SN12C renal) of 9.73 µM and a GI50 (OVCAR-3 ovarian) of 2.69 µM. For the same compound, the TGI (OVCAR-3 ovarian) was 9.13 µM, the GI50 (K-562 leukemia) was 2.73 µM and the TGI (K-562 leukemia) was over 100 µM. For the same compound, the GI50 (UACC-62 melanoma) was 0.862 µM, the TGI (UACC-62 melanoma) was 10.9 µM and the GI50 (HOP-92 NSCLC) was 1.51 µM. The TGI (HOP-92 NSCLC) was 4.27 µM, the GI50 (HT29 colon) was 2.39 µM and the TGI (HT29 colon) was 5.32 µM. It also gave a GI50 (HCT-116 colon) of 2.68 µM, a TGI (HCT-116 colon) of 10.6 µM and a GI50 (SNB-19 CNS) of 3.09 µM. The TGI (SNB-19 CNS) was 12.4 µM, the GI50 (MDA-MB-435) was 3.45 µM and the TGI (MDA-MB-435) was 14.1 µM. For the same compound, the GI50 (SF-539 CNS) was 0.795 µM, the TGI (SF-539 CNS) was 8.06 µM and the GI50 (SW-620 colon) was 2.85 µM. For the same compound, the TGI (SW-620 colon) was 11.7 µM, the GI50 (DU-145 prostate) was 4.55 µM and the TGI (DU-145 prostate) was 16 µM. For the same compound, the GI50 (NCI/ADR-RES ovarian) was 2.79 µM, the TGI (NCI/ADR-RES ovarian) was 12.4 µM and the GI50 (SK-MEL-5 melanoma) was 2.56 µM. The TGI (SK-MEL-5 melanoma) was 8.54 µM, the GI50 (HCC-2998 colon) was 1.74 µM and the TGI (HCC-2998 colon) was 3.55 µM. It also gave a GI50 (MOLT-4 leukemia) of 0.644 µM, a TGI (MOLT-4 leukemia) of 18.5 µM and a GI50 (MALME-3M melanoma) of 3.26 µM. For the same compound, the TGI (MALME-3M melanoma) was 15.3 µM, the GI50 (CCRF-CEM leukemia) was 1.27 µM and the TGI (CCRF-CEM leukemia) was over 100 µM. For the same compound, the GI50 (HS 578T breast) was 2.13 µM, the TGI (HS 578T breast) was 8.29 µM and the GI50 (HL-60(TB) leukemia) was 1.7 µM. The TGI (HL-60(TB) leukemia) was 18.7 µM, the GI50 (NCI-H522 lung) was 1.6 µM and the TGI (NCI-H522 lung) was 5.54 µM. The GI50 (T-47D breast) was 1.97 µM, the TGI (T-47D breast) was 12 µM and the GI50 (SF-268 CNS) was 1.84 µM. It also gave a TGI (SF-268 CNS) of 13.9 µM, a GI50 (SK-MEL-28 melanoma) of 3.58 µM and a TGI (SK-MEL-28 melanoma) of 13.2 µM. It also gave a GI50 (786-0 renal) of 2.5 µM, a TGI (786-0 renal) of 8.24 µM and a GI50 (NCI-H460 lung) of 2.7 µM. It also gave a TGI (NCI-H460 lung) of 8.64 µM, a GI50 (IGROV1 ovarian) of 0.251 µM and a TGI (IGROV1 ovarian) of 1.89 µM. The GI50 (A549 NSCLC) was 3.26 µM, the TGI (A549 NSCLC) was 12.7 µM and the GI50 (OVCAR-4 ovarian) was 4.07 µM. The TGI (OVCAR-4 ovarian) was 17.8 µM, the GI50 (OVCAR-5 ovarian) was 2.32 µM and the TGI (OVCAR-5 ovarian) was 9.51 µM. It also gave a GI50 (LOX IMVI melanoma) of 1.11 µM, a TGI (LOX IMVI melanoma) of 2.49 µM and a GI50 (TK-10 renal) of 5.85 µM. It also gave a TGI (TK-10 renal) of 15.1 µM, a GI50 (PC-3 prostate) of 0.851 µM and a TGI (PC-3 prostate) of 10.1 µM. It also gave a GI50 (BT-549 breast) of 0.259 µM, a TGI (BT-549 breast) of 5.39 µM and a GI50 (HOP-62 NSCLC) of 3.14 µM. It also gave a TGI (HOP-62 NSCLC) of 13 µM, a GI50 (RXF 393 renal) of 1.85 µM and a TGI (RXF 393 renal) of 5.64 µM. The GI50 (OVCAR-8 ovarian) was 2.96 µM, the TGI (OVCAR-8 ovarian) was 17 µM and the GI50 (UACC-257 melanoma) was 3.47 µM. It also gave a TGI (UACC-257 melanoma) of 15.3 µM, a GI50 (MCF7 breast) of 1.59 µM and a TGI (MCF7 breast) of 7.85 µM. For the same compound, the GI50 (NCI-H23 lung) was 2.14 µM, the TGI (NCI-H23 lung) was 8.21 µM and the GI50 (KM12 colon) was 1.67 µM. The TGI (KM12 colon) was 5.88 µM, the GI50 (SK-OV-3 ovarian) was 2.71 µM and the TGI (SK-OV-3 ovarian) was 13.7 µM. The GI50 (SNB-75 CNS) was 0.568 µM, the TGI (SNB-75 CNS) was 6.01 µM and the GI50 (U251 CNS) was 2.54 µM. It also gave a TGI (U251 CNS) of 10.5 µM, a GI50 (SF-295 CNS) of 1.74 µM and a TGI (SF-295 CNS) of 3.56 µM. It also gave a GI50 (MDA-MB-468 breast) of 1.61 µM, a TGI (MDA-MB-468 breast) of 4.2 µM and a GI50 (HCT-15 colon) of 1.8 µM. For the same compound, the TGI (HCT-15 colon) was 4.25 µM, the GI50 (A498 renal) was 4.03 µM and the TGI (A498 renal) was 13.3 µM. The GI50 (SK-MEL-2 melanoma) was 2.92 µM, the TGI (SK-MEL-2 melanoma) was 11.9 µM and the GI50 (CAKI-1 renal) was 1.6 µM. It also gave a TGI (CAKI-1 renal) of 9.87 µM, a GI50 (EKVX NSCLC) of 1.74 µM and a TGI (EKVX NSCLC) of 10.9 µM. For the same compound, the GI50 (M14 melanoma) was 2.03 µM, the TGI (M14 melanoma) was 5.31 µM and the GI50 (ACHN renal) was 2.66 µM. The TGI (ACHN renal) was 10.5 µM, the GI50 (COLO 205 colon) was 2.07 µM and the TGI (COLO 205 colon) was 5 µM. The GI50 (RPMI-8226 leukemia) was 1.47 µM, the TGI (RPMI-8226 leukemia) was 8.12 µM and the GI50 (MDA-MB-231 breast) was 1.44 µM. For the same compound, the TGI (MDA-MB-231 breast) was 3.64 µM, the GI50 (UO-31 renal) was 0.532 µM and the TGI (UO-31 renal) was 7.55 µM. For the same compound, the GI50 (NCI-H226 lung) was 0.674 µM and the TGI (NCI-H226 lung) was 10.3 µM.
